Experimental data reported in US6852538B1, “Nur-RE a response element which binds nur nuclear receptors and method of use therefor” (Institut de Recherches Cliniques de Montreal, priority 1996, dated 2005).
Entries after “also recorded” stand apart in the source; their conditions may differ. Ends that are not written are not given here.

Legend:
[1] = system: Nur77 mRNA; assay: Northern blot of Nur77 mRNA in AtT-20 cells; assay type: cell-based
Experimental: Total RNA (20 μg) extracted from AtT-20 cells was used in Northern blot experiments performed as described previously (Lamonerie et al., 1996, Genes Dev. 10:1284-1295).

[2] = system: Nur-RE; assay: NurRE-luc reporter (three copies of Nur-RE upstream of minimal POMC promoter) in AtT-20 cells; assay type: cell-based; conditions: CRH 10^−7M
Experimental: (§1) Transfections in AtT-20 cells were performed by lipofection (lipofectin, Gibco) using exponentially growing AtT-20 cells (7.5×10^5) in 35 mm Petri dishes. Cells were grown in DMEM with 10% fetal calf serum stripped with dextran-coated charcoal. Cells and media were harvested 16 h after lipofection. Each sample for lipofection contained a total of 1.5 μg DNA, including 300 ng reporter plasmid, 300 ng RSV-GH as internal control, 100 ng of pCMX-Nur77 expression vector, and total DNA was completed to 1.5 μg with pSP64. The POMC promoter constructs were described previously (Therrien et al., 1991, Mol. Cell. Biol. 11:3492-3503; Therrien et al., 1993, Cell. Biol. 13:2342-2353.). In particular, the NurRE and nGRE linker scanning replacement mutations were described previously as mutants 3 and 15 in a series of promoter mutations (Therrien et al., 1991, supra). DO 11.10 cells were electroporated using a Biorad instruments at 250 V, 960 μFarad, and 10 μg each of reporter plasmid and expression vectors. CRH (10^−7M) and forskolin (10^−7M) were used at maximally active concentrations, and anti-CD3 (clone 145-2C11) was used at 1 μg/ml to coat dishes. The expression plasmid for the Nur77 dominant negative mutant was used at 3 μg/dish. Data are presented as the means ± SEM of 3 to 5 experiments each performed in duplicate. […]

[3] = system: Nur-RE; assay: NurRE-luc reporter cotransfection with Nur77 and GR in CV-1 cells; assay type: cell-based; conditions: Dex 10^−7M, ratio 1/0
[4] = system: NBRE; assay: NBRE-luc reporter, antagonism between Nur77 and Dex; assay type: cell-based; conditions: data not shown
Experimental: Transfections in AtT-20 cells were performed by lipofection (Lipofectamine, Gibco) using exponentially growing AtT-20 cells (7.5×10^5) in 35 mm Petri dishes. Cells were grown in DMEM with 10% fetal calf serum stripped with dextrancoated charcoal (Drouin et al., 1976, Endocrinology 98:1528-1534). Cells and media were harvested 16 h after lipofection. Each sample for lipofection contained a total of 1.5 μg DNA, including 300 ng reporter plasmid, 300 ng RSV-GH as internal control, 100 ng of pCMX-Nur77 expression vector, and total DNA was completed to 1.5 μg with pSP64. Where indicated, CRH and Dex were added at 10^−7M. The POMC promoter constructs were described previously (Therrien et al., 1991, Mol. Cell. Biol. 11:3492-3503; Therrien et al., 1993, Mol. Cell. Biol. 13:2342-2353). In particular, the NurRE and nGRE linker scanning replacement mutations were described previously as mutants 3 and 15 in a series of promoter mutations (Therrien et al., 1991, supra). DO 11.10 cells ([…] in 0.35 ml SMEM) were electroporated using a Biorad instruments at 250 V, 960 μFarad, and 10 μq each of reporter plasmid and expression vectors. After electroporation, cells were plated in SMEM containing 5% fetal calf serum with or without 10^−7M Dex, antiCD3 (clone 145-2C11) was used at 1 μg/ml to coat dishes (Iwata et al., 1991, Eur. J. Pharmacol. 21:643-648). […]

[5] = system: rat POMC promoter (−480 to +63 bp); assay: POMC promoter-luciferase reporter lipofected in AtT-20 cells; assay type: cell-based; conditions: Dex 10^−7M
Experimental: as §1

[6] = target: T1, Nur77 (NGFI-B) (UniProt P12813 P12813:1-601); assay: EMSA; binds as homodimer, apparently cooperative; DMS interference maps two inverted octamers 6 bp apart; conditions: tags: Promega TNT SP6/T7, pCMX-Nur77; label: 3'-end label (Klenow)
[7] = target: Glucocorticoid receptor (GR) (UniProt P06536 P06536:1-795); assay: EMSA; conditions: tags: Promega TNT; label: 3'-end label (Klenow)
[8] = target: T1, Nur77 (NGFI-B); assay: EMSA; binds as monomer; conditions: tags: Promega TNT SP6/T7, pCMX-Nur77; label: 3'-end label (Klenow)

T1 sequence (P12813 whole entry, one chain of several): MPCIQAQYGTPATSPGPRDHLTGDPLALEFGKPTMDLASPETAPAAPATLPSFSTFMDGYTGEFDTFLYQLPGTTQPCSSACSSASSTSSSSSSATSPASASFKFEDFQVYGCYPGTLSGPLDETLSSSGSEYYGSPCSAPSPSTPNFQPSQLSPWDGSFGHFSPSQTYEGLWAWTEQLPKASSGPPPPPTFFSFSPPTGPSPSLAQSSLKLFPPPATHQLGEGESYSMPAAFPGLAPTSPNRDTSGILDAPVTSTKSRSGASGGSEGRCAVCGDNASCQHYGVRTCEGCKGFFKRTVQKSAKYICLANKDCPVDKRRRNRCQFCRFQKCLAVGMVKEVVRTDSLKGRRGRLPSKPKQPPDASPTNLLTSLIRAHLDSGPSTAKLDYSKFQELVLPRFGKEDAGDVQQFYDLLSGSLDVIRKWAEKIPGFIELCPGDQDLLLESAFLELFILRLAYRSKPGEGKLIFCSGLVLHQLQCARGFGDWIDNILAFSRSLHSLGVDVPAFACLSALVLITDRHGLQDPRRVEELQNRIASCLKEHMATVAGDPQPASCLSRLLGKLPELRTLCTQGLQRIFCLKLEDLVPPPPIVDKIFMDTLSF
Sequence of Glucocorticoid receptor (GR) (P06536 whole entry, one chain of several): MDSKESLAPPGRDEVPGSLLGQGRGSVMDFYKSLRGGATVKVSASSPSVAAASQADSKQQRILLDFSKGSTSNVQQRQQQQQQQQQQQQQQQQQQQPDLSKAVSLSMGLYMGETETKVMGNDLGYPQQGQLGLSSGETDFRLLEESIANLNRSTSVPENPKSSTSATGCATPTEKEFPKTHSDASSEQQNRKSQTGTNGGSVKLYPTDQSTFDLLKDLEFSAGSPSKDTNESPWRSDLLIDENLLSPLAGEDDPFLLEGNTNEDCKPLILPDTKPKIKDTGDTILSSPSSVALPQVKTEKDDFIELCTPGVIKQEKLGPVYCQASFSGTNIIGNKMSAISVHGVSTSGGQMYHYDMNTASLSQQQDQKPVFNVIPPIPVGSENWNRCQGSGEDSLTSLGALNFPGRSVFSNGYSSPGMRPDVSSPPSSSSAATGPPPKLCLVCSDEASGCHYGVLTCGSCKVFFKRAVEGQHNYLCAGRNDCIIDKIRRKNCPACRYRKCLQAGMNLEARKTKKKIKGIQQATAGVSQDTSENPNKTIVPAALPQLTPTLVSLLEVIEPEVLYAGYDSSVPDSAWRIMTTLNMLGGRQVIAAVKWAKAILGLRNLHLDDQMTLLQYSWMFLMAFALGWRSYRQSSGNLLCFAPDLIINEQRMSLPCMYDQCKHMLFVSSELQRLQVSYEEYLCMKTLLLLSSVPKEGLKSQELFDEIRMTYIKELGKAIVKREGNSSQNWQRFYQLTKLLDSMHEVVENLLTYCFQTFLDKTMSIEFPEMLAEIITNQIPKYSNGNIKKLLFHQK

Question: What does the source list for “Corticotropin Releasing Hormone (SEEPPISLDLTFHLLREVLEMARAEQLAQQAHSNRKLMEII; ends and bridges not checked; UniProt P06850 154-194, looked up) [CRH, hypothalamic hormone, major stimulus of pituitary ACTH secretion and of POMC transcription]”?
Answer: induction of Nur77 mRNA/expression ([1]; CRH 10^−7M): rapidly Induced; also recorded: transient induction; response of Nur-RE reporter (oligomerized response element, construct 6) to CRH [2]: greatly enhanced response

Question: `C[C@@H]1C[C@H]2[C@@H]3CCC4=CC(=O)C=C[C@]4(C)[C@@]3(F)[C@@H](O)C[C@]2(C)[C@@]1(O)C(=O)CO` [Dex, dexamethasone] was tested. Which “reduction of the CRH induction of Nur77 mRNA” value ([1]; Dex 10^−7M with CRH 10^−7M) did it give?
Answer: about 50%

Question: And the “effect on Nur77 activation at the NurRE in the absence of GR” value [3]?
Answer: no effect

Question: What about the “magnitude of Nur77/Dex antagonism on NBRE-luc reporter relative to NurRE-luc” value [4] of the same molecule?
Answer: about 40 fold less

Question: And the “magnitude of the repression of POMC promoter/luciferase reporter” value [5]?
Answer: 2- to 3 fold

B1: NurRE (POMC) (dsDNA)
DNA 1: GATCCTAGTGATATTTACCTCCAAATGCCAGGA
DNA 2: TCCTGGCATTTGGAGGTAAATATCACTAGGATC
Question: Does B1 bind [6]?
Answer: binds

Question: Does B1 bind [7]?
Answer: no binding

B2: NBRE (dsDNA)
DNA 1: GATCCTCGTGCGAAAAGGTCAAGCGCTA
DNA 2: TAGCGCTTGACCTTTTCGCACGAGGATC
Question: Does B2 bind [8]?
Answer: binds
